We go through 35 molecules from patent US5955616A, “Pyrrolidine derivatives having phospholipase A2 inhibitory activity” (Shionogi & Co., Ltd., priority 1995, dated 1999).

pIC50: −log10 of the molar value.

Assay [1] deals with T1, cPLA2 (Homo sapiens, UniProt P47712).
T1 sequence (P47712 1-749): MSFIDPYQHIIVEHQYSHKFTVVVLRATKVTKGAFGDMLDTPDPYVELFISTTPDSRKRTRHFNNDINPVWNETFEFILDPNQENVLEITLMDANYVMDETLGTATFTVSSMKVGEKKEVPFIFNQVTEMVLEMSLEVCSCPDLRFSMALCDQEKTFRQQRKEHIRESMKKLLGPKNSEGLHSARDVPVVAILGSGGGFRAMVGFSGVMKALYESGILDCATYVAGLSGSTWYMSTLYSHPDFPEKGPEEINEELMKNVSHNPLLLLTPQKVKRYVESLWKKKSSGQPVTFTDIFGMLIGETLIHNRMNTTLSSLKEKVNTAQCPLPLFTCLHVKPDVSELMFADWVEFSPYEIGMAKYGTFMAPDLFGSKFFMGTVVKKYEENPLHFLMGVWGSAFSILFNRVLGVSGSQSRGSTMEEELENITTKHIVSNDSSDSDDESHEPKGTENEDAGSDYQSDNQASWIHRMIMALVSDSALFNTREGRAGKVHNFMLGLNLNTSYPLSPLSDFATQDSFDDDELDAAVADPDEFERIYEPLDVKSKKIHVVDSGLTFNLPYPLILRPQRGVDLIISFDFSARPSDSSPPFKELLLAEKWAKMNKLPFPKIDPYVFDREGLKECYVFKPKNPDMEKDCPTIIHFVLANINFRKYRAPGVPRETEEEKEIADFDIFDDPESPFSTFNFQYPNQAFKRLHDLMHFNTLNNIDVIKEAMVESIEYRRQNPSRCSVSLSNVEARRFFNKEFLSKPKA
The assay is described as follows: cPLA2 Inhibitory activity (release of radiolabelled fatty acid from liposomes). It is filed as biochemical. Conditions: 50 mM HEPES pH 7.4, 1 mM CaCl2, 2.5 μM radio-labeled phosphatidylcholine, 15 min at 37° C; read-out: cPLA2 Inhibition Activity IC50. As to the method:
Experiment 1 cPLA2 Inhibitory activity
The compounds of the present invention was tested for the cPLA2 inhibitory activity by a method known in a literature (R. M. Kramer, E. F. Roberts, J. Manetta and J. E. Putnam, J. Biol. Chem., 268(8), 5268-5272 ([…])), as outlined below.
As a substrate, liposomes which contain 1-palmitoyl-2-[^14 C]-arachidonoyl-sn-glycero-3-phosphocholine and sn-1,2-dioleoylglycerol at the ratio of 2:1 and have treated ultrasonically were used. The substrate was added to a 50 mM HEPES buffer (pH 7.4) (200 μl) containing 1 mM CaCl2, 2 mM dithiothreitol, 150 mM NaCl, 0.1 mg/ml BSA so as to make the concentration of radio-labeled phosphatidylcholine 2.5 μM. To the solution was added a compound of the present invention in DMSO (10 μl) to obtain reaction solutions each containing the test compound at 250 μM, 50 μM, 10 μm, 2 μM, and 0.4 μM. The reaction was allowed to start by adding an enzyme (cPLA2) (4 ng) and continued for 15 min at 37° C.
The amount of fatty acids released by the reaction was measured on a liquid scintillation counter. Control was obtained by conducting the experiment in the same manner except that a compound of the present invention was not added. The inhibitory activity was expressed as percent (%) to the control value, which was used for the calculation of the concentration required for 50% inhibition (IC50, μM).

The test system of assay [2] is Prostaglandin E2 production in human fibroblasts. The assay is described as follows: Inhibition of Production of Prostaglandin E2 in Human Fibroblasts (IL-1 stimulated). Conditions: Fibroblast, stimulation with IL-1, read-out: Inhibitory activity Against the Production of Prostaglandin E2 in Human Fibroblasts IC50. It is filed as cell-based. Here is the method:
Experiment 2 Inhibition of Production of Prostaglandin E2 in Human Fibroblasts
From this viewpoint, the compounds of the present invention were tested for the effect on the production of prostaglandin E2 by human fibroblasts under the stimulation with IL-1 according to the method of J. M. Dayer et al (CACHECTIN/TUMOR NECROSIS FACTOR STIMULATES COLLAGENASE AND PROSTAGLANDIN E2 PRODUCTION BY HUMAN SYNOVIAL CELLS AND DERMAL FIBROBLASTS; J. M. Dayer, B. Beutlerm and A. Cerami, J. Exp. Med., 162,2163-2168, 1985).

Take `O=C1NC(=S)S/C1=C\c1cn(NC(=O)[C@@H]2C[C@H](SCc3ccccc3)CN2C(=O)c2ccccc2)c2ccccc12` [Compound A-60]: the pIC50 was 5.21 in assay [1] and 5.89 in assay [2].

For `CS[C@H]1C[C@@H](C(=O)Nc2ccc(C=C3SC(=S)NC3=O)cc2)N(C(=O)Cc2ccc(Br)cc2)C1` [Compound A-26], the pIC50 in assay [1] is 5.55; in assay [2], 5.74.

Take `CS[C@H]1C[C@@H](C(=O)Nc2ccc(C=C3SC(=O)NC3=O)cc2)N(C(=O)Cc2ccc(Br)cc2)C1` [Compound A-25]: the negative logarithm of the IC50 (pIC50) in assay [1] is 4.74; in assay [2], 5.10.

In the case of `CCCCNC(=O)N1C[C@@H](SCc2ccccc2)C[C@H]1C(=O)Nc1ccc(C=C2SC(=S)NC2=O)cc1` [Compound A-30], the negative-log IC50 (pIC50) in assay [1] was 4.80; in assay [2], 6.29.

On to `CS[C@H]1C[C@@H](C(=O)Nc2ccc(/C=C3\SC(=O)NC3=O)cc2)N(S(=O)(=O)c2ccc(-c3ccccc3)cc2)C1` [Compound A-44], for which the results for the pIC50 in assay [1] and in assay [2] were 5.13 and 5.82, respectively.

Turning to `COC(=O)c1ccc(CS[C@H]2C[C@@H](CNC(=O)c3ccc(/C=C4\SC(=S)NC4=O)cc3)N(C(=O)c3ccccc3)C2)cc1` [Compound B-5], the pIC50 in assay [1] is 5.66; in assay [2] it was 5.70.

For the molecule `CC(C)(C)OC(=O)N1C[C@@H](SC(c2ccccc2)(c2ccccc2)c2ccccc2)C[C@H]1C(=O)Nc1ccc(/C=C2\OC(=S)NC2=O)cc1` [Compound A-62], the values for the negative-log IC50 (pIC50) in assay [1] and in assay [2] were 5.37 and 5.66, respectively.

For `O=C1NC(=S)S/C1=C\c1ccc(NC(=O)[C@@H]2C[C@H](SCc3ccccc3)CN2S(=O)(=O)Cc2ccc(Br)cc2)cc1` [Compound A-54], the pIC50 in assay [1] is 5.47; in assay [2], 5.96.

`O=C1NC(=O)C(=Cc2cc(CCCO)cc(NC(=O)C3CC(OC(c4ccccc4)c4ccccc4)CN3C(=O)c3ccccc3)c2)S1` (stereo not drawn) [Compound C-6]: the figures for the pIC50 in assay [1] and in assay [2] were 4.89 and 5.64, respectively.

Regarding `O=C1NC(=O)C(=Cc2ccc(S(=O)(=O)NC[C@@H]3C[C@H](SCc4ccccc4)CN3C(=O)c3ccccc3)cc2)S1` [Compound B-7], the negative-log IC50 (pIC50) in assay [1] was 5.01; in assay [2] it was 5.44.

Regarding `CS[C@H]1C[C@@H](C(=O)Nc2ccc(/C=C3\SC(=O)NC3=O)cc2)N(S(=O)(=O)c2c(Cl)cccc2Cl)C1` [Compound A-40], the pIC50 in assay [1] is 4.82; in assay [2], 5.11.

Take `CN(C)c1cccc2c(S(=O)(=O)N3C[C@@H](SCc4ccccc4)C[C@H]3C(=O)Nc3ccc(/C=C4\SC(=S)NC4=O)cc3)cccc12` [Compound A-52]: the results for the pIC50 in assay [1] and in assay [2] were 5.25 and 5.54, respectively.

For the molecule `CS[C@H]1C[C@@H](C(=O)Nc2ccc(/C=C3\SC(=S)NC3=O)cc2)N(S(=O)(=O)c2ccc(-c3ccccc3)cc2)C1` [Compound A-45], the results for the negative logarithm of the IC50 (pIC50) in assay [1] and in assay [2] were 5.32 and 5.82, respectively.

On to `CC(C)S[C@H]1C[C@@H](C(=O)Nc2ccc(C=C3SC(=S)NC3=O)cc2)N(C(=O)OC(C)(C)C)C1` [Compound A-16], for which the negative-log IC50 (pIC50) in assay [1] was 4.66; in assay [2] it was 5.54.

In the case of `CS[C@H]1C[C@@H](C(=O)Nc2ccc(C(CO)=C3SC(=O)NC3=O)cc2)N(S(=O)(=O)c2ccc(-c3ccccc3)cc2)C1` [Compound D-1], the negative logarithm of the IC50 (pIC50) was 4.66 in assay [1] and 5.44 in assay [2].

As to `NC(=O)c1ccc(CS[C@H]2C[C@@H](CNC(=O)c3ccc(/C=C4\SC(=S)NC4=O)cc3)N(C(=O)c3ccccc3)C2)cc1` [Compound B-6], the pIC50 in assay [1] was 4.51; in assay [2], 5.33.

Regarding `O=C1NC(=O)/C(=C/c2ccc(C(=O)NC[C@@H]3C[C@H](OCc4ccc(-c5ccccc5)cc4)CN3C(=O)c3ccc(Cn4sccc4=O)cc3)cc2)S1` [Compound H-9], the pIC50 in assay [1] was 5.70; in assay [2], 5.02.

Take `N#CC(=S)Nc1ccc(C(=O)N2C[C@@H](OC(c3ccccc3)c3ccccc3)C[C@H]2CNC(=O)c2ccc(/C=C3\SC(=O)NC3=O)cc2)cc1` [Compound H-11]: the figures for the pIC50 in assay [1] and in assay [2] were 5.37 and 5.07, respectively.

As to `O=C1NC(=O)C(=Cc2ccc(NC(=O)[C@@H]3C[C@H](SCc4ccc(-c5ccccc5)cc4)CN3C(=O)c3ccccc3)cc2)S1` [Compound A-6], the pIC50 is 5.48 in assay [1] and 5.09 in assay [2].

With `O=C1NC(=S)S/C1=C\c1ccc(NC(=O)[C@@H]2C[C@H](SCc3ccccc3)CN2S(=O)(=O)c2ccc(Cc3ccccc3)cc2)cc1` [Compound A-48], the negative-log IC50 (pIC50) is 5.31 in assay [1] and 5.06 in assay [2].

For `COC(=O)CCc1cc(C=C2SC(=O)NC2=O)cc(NC(=O)C2CC(OC(c3ccccc3)c3ccccc3)CN2C(=O)c2ccccc2)c1` (stereo not drawn) [Compound C-5], the pIC50 is 5.01 in assay [1] and 5.92 in assay [2].

`O=C1NC(=O)C(=Cc2ccc(NC(=O)[C@@H]3C[C@H](SCc4ccccc4)CN3C(=O)c3ccccc3)cc2)S1` [Compound A-3]: the pIC50 in assay [1] was 5.28; in assay [2], 5.62.

Consider `CS[C@H]1C[C@@H](C(=O)Nc2ccc(/C=C3\SC(=S)NC3=O)cc2)N(S(=O)(=O)c2ccc(N(C)C)cc2)C1` [Compound A-49], for which the pIC50 in assay [1] is 4.77.

Consider `O=C1NC(=S)S/C1=C\c1ccc(NC(=O)[C@@H]2C[C@H](SCc3ccccc3)CN2S(=O)(=O)N2CCOCC2)cc1` [Compound A-36], for which the negative-log IC50 (pIC50) in assay [1] is 4.85.

In the case of `CC(=O)Nc1nc(C)c(S(=O)(=O)N2C[C@@H](SCc3ccccc3)C[C@H]2C(=O)Nc2ccc(/C=C3\SC(=S)NC3=O)cc2)s1` [Compound A-59], the pIC50 in assay [1] is 5.07.

With `CS[C@H]1C[C@@H](C(=O)Nc2ccc(/C=C3\SC(=S)NC3=O)cc2)N(S(=O)(=O)c2ccc(Cc3ccccc3)cc2)C1` [Compound A-47], in assay [1], the pIC50 is 5.22.

For `O=C1NC(=O)C(=Cc2ccc(S(=O)(=O)NC[C@@H]3C[C@H](SC(c4ccccc4)c4ccccc4)CN3C(=O)c3ccccc3)cc2)S1` [Compound B-8], in assay [1], the pIC50 was 5.89.

Consider `O=C1NC(=S)S/C1=C\c1ccc(NC(=O)[C@@H]2C[C@H](SCc3ccccc3)CN2S(=O)(=O)c2ccc(N=Nc3ccccc3)cc2)cc1` [Compound A-57], for which the pIC50 in assay [1] is 5.33.

Take `O=C1NC(=S)S/C1=C\c1ccc(NC(=O)[C@@H]2C[C@H](SCc3ccccc3)CN2S(=O)(=O)c2cccc3cccnc23)cc1` [Compound A-51]: the negative logarithm of the IC50 (pIC50) in assay [1] is 5.20.

For the molecule `O=C1NC(=O)C(=C(CO)c2ccc(NC(=O)[C@@H]3C[C@H](SCc4ccccc4)CN3C(=O)Cc3ccc(Br)cc3)cc2)S1` [Compound D-3], the negative logarithm of the IC50 (pIC50) in assay [2] is 5.15.

As to `O=C1NC(=S)S/C1=C\c1ccc(NC(=O)[C@@H]2C[C@H](SCc3ccccc3)CN2S(=O)(=O)Cc2c(Cl)cccc2Cl)cc1` [Compound A-53], in assay [2], the pIC50 was 6.08.

Take `O=C1NC(=O)/C(=C/c2ccc(NC(=O)[C@H]3C[C@H](SCc4ccccc4)CN3S(=O)(=O)c3ccc(-c4ccccc4)cc3)cc2)S1` [Compound M-2]: the pIC50 in assay [1] was 4.82.

`O=C1NC(=O)/C(=C/c2ccc(S(=O)(=O)NC[C@@H]3CC(OCc4ccc(F)cc4F)CN3S(=O)(=O)Cc3ccc(Br)cc3)cc2)S1` (stereo partly drawn) [Compound H-19]: the pIC50 in assay [1] was 5.07.

On to `O=C1NC(=O)/C(=C/c2ccc(C(=O)NC[C@@H]3CC(OCc4ccc(F)cc4F)CN3S(=O)(=O)c3ccc(Cc4ccccc4)cc3)cc2)S1` (stereo partly drawn) [Compound H-5], for which the pIC50 in assay [1] was 5.19.

Consider `Cc1cc(C)c(COC2C[C@@H](C(=O)Nc3ccc(C=C4SC(=O)NC4=O)cc3)N(C(=O)c3ccccc3)C2)c(C)c1` (stereo partly drawn) [Compound G-6], for which the negative logarithm of the IC50 (pIC50) in assay [1] is 5.00.

The term pIC50 denotes −log10 of the IC50, conventionally taken in molar units.
